Experimental data as given in article PMC9436958, “The synthesis of novel thioderivative chalcones and their influence on NF-κB, STAT3 and NRF2 signaling pathways in colorectal cancer cells” (Scientific Reports, 2022).
Like-named read-outs stand apart in the source and are kept apart here.

How the values were obtained:
NF-κB = system: NF-κB; design: method as in PMID 34120541; settings: PANC-1 pancreatic cancer cells; cited from earlier work
COX-2 [1] = system: COX-2; design: method as in PMID 34120541; settings: PANC-1 pancreatic cancer cells; cited from earlier work
Nrf2 signaling pathway = system: Nrf2 signaling pathway; design: method as in PMID 23085367, PMID 34120541; settings: cited from earlier work
COX-2 [2] = assay: COX-2 expression (qRT-PCR mRNA, Western blot protein); format: cell-based; settings: BAY 11-7082 5 µM; both tested cell lines
Procedure: (§1) Cytosolic and nuclear extracts were prepared using a Nuclear/Cytosol Fractionation Kit (BioVision Research, USA). Cytosolic extracts (for NF-κBp65, NF-κBp50, COX-2, iNOS, STAT3, c-Myc, Bcl-xl, Nrf2, SOD, GSTP, EGFR, Akt, p-Akt, Keap1, IKKα/β and β-actin) or nuclear extracts (for NF-κBp65, NF-κBp50, STAT3, p-STAT3, Nrf2, p-Nrf2 and lamin) were separated on 7.5%, 10% or 12% SDS–PAGE slab gels. Then, the proteins were transferred to a nitrocellulose Immobilon-P membrane. After blocking for 2 h with 10% skimmed milk, proteins were incubated with primary antibodies against NF-κBp65, NF-κBp50, COX-2, iNOS, STAT3, p-STAT3, c-Myc, Bcl-xl, Nrf2, p-Nrf2, SOD, GSTP, EGFR, Akt, p-Akt, Keap1, IKKα/β, β-actin, and lamin. Alkaline phosphatase (AP)-labeled anti-rabbit IgG, anti-goat IgG, and anti-mouse IgG secondary antibodies (Bio-Rad Laboratories, USA), as well as horseradish peroxidase (HRP)-conjugated anti-mouse IgG (Boster Bio, USA) secondary antibodies were used in the staining reaction. Bands were visualized by the AP Conjugate Substrate Kit NBT/BCIP or the chemiluminescent HRP substrate of the Clarity ECL Kit (Bio–Rad Laboratories, USA). The amount of immunoreactive product in each lane was determined using a ChemiDoc Imaging System (Bio–Rad Laboratories, USA). Values were calculated as relative absorbance units (RQ) per mg of protein and expressed as a percentage of the control.
Total RNA from cells was isolated with the GeneMatrix Universal DNA/RNA/Protein Purification Kit (EurX, Poland). For the qRT-PCR analyses, the Maxima SYBR Green I/ROX qPCR Master Mix (2×) (Thermo Fisher Scientific, USA) and the thermal cycler LightCycler (Roche, Germany) were used. The protocol started with 5 min of enzyme activation at 95 °C, followed by 40–50 cycles at 95 °C for 15 s, 56 °C for 20 s, 72 °C for 40 s, and final elongation at 72 °C for 5 min. Melting curve analysis was used for amplicon verification. The expression levels of TATA-box-binding protein (TBP) and porphobilinogen deaminase (PBGD) were used to normalize the data. The Pfaffl comparative method was used to calculate fold change. Primers were designed using Beacon Designer software (the sequences of primers used to analyze genes are listed in Table 2 of the supplementary materials).

NF-κB p65 = assay: Western blot, NF-κB p65 protein level; format: cell-based; settings: BAY 11-7082 5 µM; both tested cell lines
Procedure: as §1

DLD-1 cells [3] = assay: Wound healing assay (cell migration); format: cell-based; settings: 24 h, 4 at standard concentration (1 μM), BAY 11-7082 5 µM
Procedure: Cell migration was assessed by the wound healing assay. DLD-1 cells were seeded into 24-well plates (5 × 10^5 cells per well) and were grown overnight to reach confluency. A scratch was performed using a 10 μl tip, wells were rinsed twice with PBS buffer to remove detached cells, and fresh medium with reduced FBS concentration (0.5%) containing the tested compounds was added. Subsequently, representative microscopic photographs of scratch areas were taken by JuLI FL microscope (NanoEntek, South Korea) direct after the addition of compounds and after 24 h. Area covered by cells (%) was assessed using JuLI FL software and the difference in the coverage of the growth area by DLD-1 cells between 0 and 24 h time points was calculated for each well. The experiment was repeated three times. The relative effect of the tested compounds on cell migration was calculated by comparing the difference in cell coverage area between compound-treated cells and DMSO-vehicle control (tested compound [area 24 h − area 0 h] / DMSO-vehicle control [area 24 h − area 0 h]).

NF-κB p50 = assay: Western blot, NF-κB p50 protein level; format: cell-based; settings: BAY 11-7082 5 µM; both tested cell lines
Procedure: as §1

HCT116 cells [4] = assay: Apoptosis, Annexin V / 7-AAD flow cytometry, HCT116; format: cell-based; settings: 48 h, increase of early, late and total apoptosis
Procedure: (§2) Apoptosis was assessed by the detection of phosphatidylserine externalization based on Annexin V staining combined with fluorescent DNA intercalator 7-Aminoactinomycin D (7-AAD) what allowed for the discrimination between early and late apoptotic cells. The analysis was performed by flow cytometry using the Muse Annexin V & Dead Cell Kit (Luminex, USA) and the Muse Cell Analyzer (Merck, Germany), according to the manufacturer’s protocol. Cells were seeded (2 × 10^5 cells per well) in six-well plates and on the following day the analyzed compounds were added. Topotecan (Sigma-Aldrich, USA) was used as a positive control of apoptosis induction. After 48 h cells were collected by trypsinization, stained and after 20 min incubation at room temperature in the dark analyzed by flow cytometry. Three independent experiments were performed. Data were analyzed by Muse 1.5 Analysis Software (Merck, Germany).

DLD-1 cells [5] = assay: Apoptosis, Annexin V / 7-AAD flow cytometry, DLD-1; format: cell-based; settings: 48 h, mainly early and total apoptotic populations enriched
Procedure: as §2

DLD-1 cells [6] = assay: Cell cycle distribution, PI staining, flow cytometry, DLD-1; format: cell-based; settings: 48 h, BAY 11-7082 5 µM, 5 in higher (doubled) concentration
Procedure: (§3) The analysis of the cell cycle distribution was performed by propidium iodide (PI) staining. The addition of RNase A improved the specificity of PI binding to DNA. The Muse Cell Cycle Kit (Luminex, USA) and flow cytometric detection were performed with the Muse Cell Analyzer (Merck, Germany), according to the manufacturer’s protocol. Briefly, cells were seeded (2 × 10^5 cells per well) in 6-well plates and on the following day the analyzed compounds were added. Topotecan (Sigma-Aldrich, USA) was used as a positive control of cell cycle arrest. After 48 h cells were collected by trypsinization, fixed in cold 70% ethanol and stored at –20 °C. Then, fixed cells were collected and stained with PI, subjected to 30 min incubation at room temperature in the dark and analyzed by flow cytometry. Three independent experiments were performed. Data were analyzed by Muse 1.5 Analysis Software (Merck, Germany).

HCT116 cells [7] = assay: Cell cycle distribution, PI staining, flow cytometry, HCT116; format: cell-based; settings: 48 h, BAY 11-7082 5 µM, 4 and 5 in higher (doubled) concentrations
Procedure: as §3

| SMILES | activation of NF-κB (NF-κB) | binding of both NF-κB subunits to DNA (NF-κB) | expression of COX-2 (COX-2 [1]) | activation of the Nrf2 signaling pathway (Nrf2 signaling pathway; HepG2 hepatoma cells) | activation of the Nrf2 signaling pathway (Nrf2 signaling pathway; PANC-1 pancreatic cancer cells) | level of COX-2, compared with the studied chalcones (COX-2 [2]) | level of NF-κBp65, compared with the studied chalcones (NF-κB p65) | reduction of cell migration rate (wound healing) vs DMSO-treated cells (DLD-1 cells [3]) | level of NF-κBp50, compared with the studied chalcones (NF-κB p50) | induction of apoptosis (HCT116 cells [4]) | induction of apoptosis (DLD-1 cells [5]) | cell cycle distribution (in words) (DLD-1 cells [6]) | cell cycle distribution (in words) (HCT116 cells [7]) |
| --- | --- | --- | --- | --- | --- | --- | --- | --- | --- | --- | --- | --- | --- |
| COc1cc(O)c(CC=C(C)C)c(O)c1C(=O)/C=C/c1ccc(O)cc1 [xanthohumol] | decreased the activation of NF-κB | decreased | decreased | significantly increased activation | significantly increased activation |  |  |  |  |  |  |  |  |
| Cc1ccc(S(=O)(=O)/C=C/C#N)cc1 [BAY 11-7082, reference compound] |  |  |  |  |  | more potent inhibition | more potent inhibition | at the same level as DMSO-treated cells | more potent inhibition | able to induce apoptosis | able to induce apoptosis | decrease of G1/G0 cell cycle phase | decreased G1/G0 phases; increased S and G2/M phases |
